Results reported in patent publication US11279702B2, “AMPK activators” (Kallyope, Inc., priority 2020, dated 2022).

Key:
[1] = target: BCRP (Homo sapiens (Human), UniProt Q9UNQ0); experiment: in vitro; format: in vitro ADME; conditions: for efflux transporter substrate assessment: Caco-2; for Efflux Ratio / Mean Papp (10^−6 cm/s) B to A / Mean Recovery (%) A to B / Mean Recovery (%) B to A / Papp B→A at 2 h, 2 μM / recovery at 2 h, 2 μM: human; for Efflux Ratio / Mean Papp (10^−6 cm/s) B to A / Mean Recovery (%) A to B / Mean Recovery (%) B to A: Caco-2, 2 h, 2 μM, pH 7.4; for Papp B→A at 2 h, 2 μM: Caco-2, pH 7.4, Mean Papp (10^−6 cm/s) B to A
Protocol: Caco-2 cells purchased from ATCC were seeded onto […] (PET) in 96-well BD Insert plates at 1×10^5 cells/cm^2, and refreshed medium every 4-5 days until to the 21st to 28th day for confluent cell monolayer formation. The transport buffer in the study was HBSS with 10 mM HEPES at pH 7.40±0.05. Compounds were tested at 2 μM in the presence or absence of 30 μM novobiocin bi-directionally in duplicate. E3S was tested at 5 μM in the presence or absence of 30 μM novobiocin bi-directionally in duplicate, while nadolol and metoprolol were tested at 2 μM in the absence of novobiocin in A to B direction in duplicate. Final DMSO concentration was adjusted to less than 1%. The plate was incubated for 2 hours in CO2 incubator at 37+1° C., with 5% CO2 at saturated humidity without shaking. All samples were mixed with acetonitrile containing internal standard and were centrifuged at 4000 rpm for 10 min. Subsequently, 100 μL supernatant solution was diluted with 100 μL distilled water for LC/MS/MS analysis. Concentrations of test and control compounds in starting solution, donor solution, and receiver solution were quantified by LC/MS/MS, using peak area ratio of analyte/internal standard.

[2] = Pharmacokinetics (oral bioavailability, IV parameters); conditions: mouse, in vivo, C57BL/6 mice; for bioavailability: IV 1 mg/kg, PO 30 mg/kg; for half-life / Vd: IV administration 1 mg/kg; for Vd: read-out: volume of distribution
Protocol: Compounds were tested for pharmacokinetics in C57BL/6 mice. Compounds 2, 4, and A1 were dosed IV at 1 mg/kg as a formulation of 0.5 mg/mL in 5% DMSO+30% PEG400+65% water and PO at 30 mg/kg as a formulation of 6 mg/mL in 0.25% MC+5% Tween 80+0.02% SDS. Compound 1 was dosed IV at 1 mg/kg as a formulation of 0.50 mg/mL in 5% DMSO+30% PEG400+65% water and PO at 30 mg/kg as a formulation of 6 mg/mL in 0.5% MC+0.5% Tween 80.

[3] = tested on: Mouse In Vivo Acute Dextran Sulfate Sodium (DSS) Colitis Model; experiment: Intestinal barrier function in acute DSS colitis model (FITC-dextran); design: species or system C57Bl/6 mice
Protocol: Vehicle or a dose of Compound A1 or Compound 1 was administered once daily by oral gavage to C57Bl/6 mice. After 3 days of pre-dosing, dextran sulfate sodium (DSS) was simultaneously administered at 2.5-3% in drinking water, and appropriate water-only controls were included.
After 6 days of DSS administration, animals treated with Compound A1 were switched back to their regular water source and a 24-hour wash-out of both DSS and compound was provided. The animals were fasted on the morning of take-down and administered a single oral bolus dose of FITC-dextran. The animals were sacrificed by cardiac puncture 4 hours after administration and plasma was collected. The concentration of FITC-dextran present in plasma was determined by measuring fluorescence intensity on a standard plate reader, and fitting values back to a standard curve.
After 7 days of DSS administration, animals treated with Compound 1 were switched back to their regular water source and the animals were administered a single oral bolus dose of FITC-dextran (FD) four hours prior to necropsy. The animals were sacrificed by cardiac puncture and serum was collected. The concentration of FITC-dextran present in serum was determined by measuring fluorescence intensity on a standard plate reader, and fitting values back to a standard curve.

[4] = target: T1, Recombinant AMPK α1/β1/γ1 complex (Homo sapiens (Human), UniProt Q13131+Q9Y478); experiment: In vitro pAMPK1 kinase activation assay (ADP-Glo, SAMS peptide); format: biochemical; conditions: at 10 μM
[5] = target: T1, Recombinant AMPK α1/β1/γ1 complex; experiment: as above; format: biochemical; conditions: for EC50: AMPK α1/β1/γ1 pre-activated with CAMKK2, 12-point curve; for activation at 10 µM: relative to reference compound MK-8722
Protocol: Compound effect on AMPK enzyme activation was determined in a cell-free format with a 12-point concentration curve. The ADP-Glo detection system was used to determine phosphorylation of a SAMS peptide substrate. Recombinant AMPK α1/β1/γ1 complex was pre-activated by phosphorylation with CAMKK2 followed by incubated with compound for 15 minutes prior to the SAMS phosphorylation reaction. Activity curves and EC50 values were fitted by interpolation to an ATP:ADP standard curve as indicated by the ADP-Glo manufacturer using Prism software. Activity at 10 μM is reported relative to a reference compound, MK-8722 (Science 2017, 357(6350):507-511).

[6] = tested on: MDCK cells; experiment: Effects on tight junction (TJ) architecture, ZO-1 staining; format: cell-based; conditions: 10 μM, low calcium medium (LCM)
Protocol: MDCK cells were grown to confluence on Transwell inserts in standard growth media. The inserts were then washed and incubated in low calcium medium (LCM) with vehicle or compound (10 μM) and fixed with paraformaldehyde. Fixed cells were stained for tight junction (TJ) component proteins using commercially available antibodies and visualized on a confocal microscope (Model DM6, Leica Microsystems). As shown by zona occludens-1 (ZO-1) staining, confluent epithelial cell monolayers in standard growth media display well-organized TJs that allow the cells to form a tight seal with their neighbors, while LCM induces autonomous internalization of TJ proteins into the cytoplasm and therefore compromises the barrier function of the epithelial monolayer.

[7] = tested on: Madin-Darby Canine Kidney (MDCK) cells; experiment: In vitro MDCK epithelial permeability assay (FITC-dextran, calcium switch); format: cell-based; conditions: low calcium medium, MDCK monolayers
Text: In order to quantitatively measure the effects of transporter substrate AMPK activators on epithelial permeability in vitro, standard calcium switch protocols from the literature were adapted for use with Madin-Darby Canine Kidney (MDCK) cells grown on Corning Transwell inserts for use with fluorescein isothiocyanate-dextran, average molecular weight 4 kDa (FITC-dextran). FITC-dextran is a large, metabolically inert sugar molecule that is not readily transferrable across healthy epithelial barriers in vitro or in vivo. This compound has been tagged with a fluorophore to easily track its movement.
Briefly, MDCK cells were seeded onto Transwell inserts and grown according to manufacturer instructions until confluent. On the day of the experiment, a baseline reading was taken in standard growth media in which FITC-dextran was spiked into the apical chamber and the percent permeation of FITC-dextran from the apical to the basolateral chamber was measured. The inserts were then washed in low calcium medium (LCM) containing either vehicle or compound to remove residual FITC-dextran and calcium, and FITC-dextran was once again spiked into the apical chamber and the percent permeation in LCM was measured. Values were determined by reading fluorescence intensity on a standard plate reader and calculated by fitting back to 12-point standard curve in either growth media or LCM+vehicle, respectively. The fold induction of FITC-dextran permeation to the basolateral chamber when each well was transferred from baseline growth media to LCM was then calculated.

[8] = Caco-2, pH 7.4, Mean Recovery (%) A to B
[9] = Caco-2, pH 7.4, Mean Recovery (%) B to A

Sequence of BCRP (Q9UNQ0 whole entry): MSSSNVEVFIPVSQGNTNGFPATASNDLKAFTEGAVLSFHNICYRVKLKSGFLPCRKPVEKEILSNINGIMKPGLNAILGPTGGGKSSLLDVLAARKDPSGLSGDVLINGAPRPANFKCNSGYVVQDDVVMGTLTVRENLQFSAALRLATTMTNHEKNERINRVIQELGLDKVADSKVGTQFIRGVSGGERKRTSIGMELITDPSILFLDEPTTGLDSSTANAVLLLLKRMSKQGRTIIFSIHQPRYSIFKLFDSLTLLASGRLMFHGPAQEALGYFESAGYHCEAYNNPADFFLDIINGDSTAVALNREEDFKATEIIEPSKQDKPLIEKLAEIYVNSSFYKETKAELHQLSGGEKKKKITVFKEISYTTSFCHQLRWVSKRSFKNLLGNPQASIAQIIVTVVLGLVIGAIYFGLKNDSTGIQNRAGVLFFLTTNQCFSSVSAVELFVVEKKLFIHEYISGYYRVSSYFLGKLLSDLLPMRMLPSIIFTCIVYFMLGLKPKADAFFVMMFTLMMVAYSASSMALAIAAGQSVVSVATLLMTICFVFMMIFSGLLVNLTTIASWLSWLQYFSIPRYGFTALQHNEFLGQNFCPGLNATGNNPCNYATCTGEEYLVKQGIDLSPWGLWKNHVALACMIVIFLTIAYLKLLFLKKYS
T1 sequence (Q13131 whole entry): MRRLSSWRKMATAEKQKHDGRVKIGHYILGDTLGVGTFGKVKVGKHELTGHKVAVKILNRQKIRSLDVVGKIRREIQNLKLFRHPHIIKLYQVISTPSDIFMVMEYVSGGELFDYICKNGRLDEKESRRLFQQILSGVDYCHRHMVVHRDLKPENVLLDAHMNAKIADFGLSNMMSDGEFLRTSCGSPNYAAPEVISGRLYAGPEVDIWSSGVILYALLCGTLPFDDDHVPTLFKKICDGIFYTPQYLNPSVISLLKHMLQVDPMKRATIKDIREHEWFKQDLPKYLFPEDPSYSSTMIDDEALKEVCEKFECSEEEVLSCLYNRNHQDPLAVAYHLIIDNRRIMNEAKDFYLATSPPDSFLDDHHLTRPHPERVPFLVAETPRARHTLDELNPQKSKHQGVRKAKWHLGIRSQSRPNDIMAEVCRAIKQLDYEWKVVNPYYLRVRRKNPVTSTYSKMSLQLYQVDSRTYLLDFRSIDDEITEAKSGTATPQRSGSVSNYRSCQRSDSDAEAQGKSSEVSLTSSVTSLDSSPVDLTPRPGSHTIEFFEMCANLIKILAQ
T1 sequence (Q9Y478 whole entry): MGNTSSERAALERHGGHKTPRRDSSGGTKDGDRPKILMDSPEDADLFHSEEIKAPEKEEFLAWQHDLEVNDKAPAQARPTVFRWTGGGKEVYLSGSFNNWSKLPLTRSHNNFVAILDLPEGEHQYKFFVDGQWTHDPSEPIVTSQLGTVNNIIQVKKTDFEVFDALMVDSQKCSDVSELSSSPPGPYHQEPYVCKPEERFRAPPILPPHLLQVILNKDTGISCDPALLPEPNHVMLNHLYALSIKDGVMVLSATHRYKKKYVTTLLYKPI
T1 sequence (P54619 whole entry partner): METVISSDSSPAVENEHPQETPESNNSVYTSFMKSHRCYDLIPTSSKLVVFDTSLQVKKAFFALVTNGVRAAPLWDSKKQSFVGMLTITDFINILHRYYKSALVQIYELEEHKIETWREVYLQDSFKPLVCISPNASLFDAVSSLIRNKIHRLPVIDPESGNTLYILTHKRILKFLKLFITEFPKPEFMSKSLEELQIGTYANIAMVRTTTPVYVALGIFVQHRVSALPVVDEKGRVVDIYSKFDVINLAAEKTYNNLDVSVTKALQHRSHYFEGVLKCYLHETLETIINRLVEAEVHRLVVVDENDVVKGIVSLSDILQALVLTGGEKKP

Efflux Ratio [1] | Mean Papp (10^−6 cm/s) B to A [1] | Mean Recovery (%) A to B [1] | Mean Recovery (%) B to A [1] | Papp B→A at 2 h, 2 μM [1] | recovery at 2 h, 2 μM [1, 8] | recovery at 2 h, 2 μM [1, 9] | bioavailability [2] | half-life [2] | Vd [2] | EC50 [5] | activation at 10 µM [5] | SMILES | efflux transporter substrate assessment [1] | activation compared with AMP [4] | TJ architecture by zona occludens-1 (ZO-1) staining [6] | reduction of FITC-dextran permeation relative to vehicle ([7]; 0.1 μM) | reduction of FITC-dextran permeation relative to vehicle ([7]; 1 μM) | also measured
44.89 | 6.98 10^−6 cm/s | 69.40% | 82.75% | 12.7 ×10⁻⁶ cm/s | < 68.8% | 79.5% | < 1% | 1.9 h | 0.7 L/kg | 1.4 nM | 35% | O=C(O)CSc1nc2nc(-c3ccc(-c4ccccc4O)cc3)c(Cl)cc2[nH]1 [Compound 1, 2-((6-chloro-5-(2′-hydroxy-[1,1′-biphenyl]-4-yl)-1H-imidazo[4,5-b]pyridin-2-yl)thio)acetic Acid] | likely substrates of intestinal efflux transporters | activation greater than that displayed by AMP | prevented the loss of TJ architecture | 48% | 62% | Change in Fluorescence Intensity vs. Vehicle ([3]; 3 mg/kg PO once daily, serum, 7 days DSS): −35%; Change in Fluorescence Intensity vs. Vehicle ([3]; 10 mg/kg PO once daily, serum, 7 days DSS): −69%; Change in Fluorescence Intensity vs. Vehicle ([3]; 30 mg/kg PO once daily, serum, 7 days DSS): −80%; Change in Fluorescence Intensity vs. Vehicle ([3]; 100 mg/kg PO once daily, serum, 7 days DSS): −96%; potency relative to Compound A1 [5]: > 100 fold
55.54 | 9.16 10^−6 cm/s | 61.16% | 78.94% | 17.1 ×10⁻⁶ cm/s | < 65.6% | 77.4% | < 1% | 4.8 h | 2.4 L/kg | 200 nM | 48% | O=C(O)CSc1nc2cc(-c3ccc(-c4ccccc4O)cc3)c(Cl)cc2[nH]1 [Compound A1] | likely substrates of intestinal efflux transporters | activation greater than that displayed by AMP | prevented the loss of TJ architecture | 40% | 61% | Change in Fluorescence Intensity vs. Vehicle ([3]; 30 mg/kg PO once daily, plasma, 6 days DSS then 24-hour wash-out): −60%
